Data on 22 molecules can be found in ChEMBL document CHEMBL1155109, “Discovery of 4-amino and 4-hydroxy-1-aroylindoles as potent tubulin polymerization inhibitors” (J Med Chem, 2008).

In one experiment the test system is MKN-45. The experiment in a line: Growth inhibition of human MKN45 cells after 72 hrs by methylene blue dye assay. It is filed as functional, cell-based. Conditions: MKN-45, 72 h.
The next experiment concerns KB. The experiment in a line: Growth inhibition of human KB cells after 72 hrs by methylene blue dye assay. It counts as functional, cell-based.
Experiment [1] in a line: Displacement of [3H]colchicine from microtubule associated protein rich tubulin at 5 uM. On the technique in general: Displacement assays read how much labelled ligand stays bound in the presence of the test substance.
The nature of experiment [2]: Inhibition of microtubule associated protein rich tubulin polymerization.
For a further experiment, the system named is NCI-H460. The experiment can be described thus: Growth inhibition of human H460 cells after 72 hrs by methylene blue dye assay. Conditions: NCI-H460, 72 h. It is filed as functional, cell-based.
The nature of experiment [3]: Growth inhibition of P-gp 170/MDR overexpressing human KB-vin10 cells after 72 hrs by methylene blue dye assay. It counts as functional. Conditions: KB-VIN10, 72 h.
A short description of experiment [4]: Displacement of [3H]colchicine from microtubule associated protein rich tubulin at 1 uM.

Structures are written as SMILES.

Take `COc1cc(C(=O)n2ccc3c(N)c(OC)ccc32)cc(OC)c1OC`: the IC50 is 0.0031 µM in the experiment with MKN-45; 0.0012 µM in the experiment on KB; 0.9 µM in experiment [2]; 0.0054 µM with NCI-H460; 0.0024 µM in experiment [3]. Further, the inhibition in experiment [1] amounted to 93%; in experiment [4], 71%.

With `COc1cc(C(=O)n2ccc3cc(CN(C)C)ccc32)cc(OC)c1OC`, the IC50 (in the experiment on MKN-45; in the experiment on KB; with NCI-H460; in experiment [3]) was over 5 µM in each case.

On to `COc1ccc(/C=C\c2cc(OC)c(OC)c(OC)c2)cc1O` [COMBRETASTATIN A4], for which the IC50 in the experiment on MKN-45 stood at 0.0056 µM; in the experiment with KB it was 0.0022 µM; with NCI-H460, 0.0028 µM. Also, the inhibition in experiment [1] was found to be 93%; in experiment [4], 85%.

In the case of `COc1cc(C(=O)n2ccc3cc(C=O)ccc32)cc(OC)c1OC`, the IC50 (in the experiment on MKN-45; with KB; with NCI-H460; in experiment [3]) was over 5 µM each time.

With `COc1ccc2c(c1)cc(CO)n2C(=O)c1cc(OC)c(OC)c(OC)c1`, the IC50 (in the experiment with MKN-45; with KB; in the experiment with NCI-H460; in experiment [3]) was over 5 µM in each case.

As for `COc1cc(C(=O)n2c(C)cc3cc(N)ccc32)cc(OC)c1OC`, the IC50 with MKN-45 was 0.156 µM; in the experiment on KB it was 0.345 µM; in the experiment with NCI-H460, 0.334 µM; in experiment [3], 0.312 µM.

As for `COc1ccc2c(c1)cc(C(C#N)N(C)C)n2C(=O)c1cc(OC)c(OC)c(OC)c1` (configuration not stated), the half-maximal inhibitory concentration (IC50) (in the experiment with MKN-45; in the experiment on KB; in the experiment with NCI-H460; in experiment [3]) was over 5 µM in each case.

With `COc1cc2c(c(OC)c1OC)-c1ccc(OC)c(=O)cc1[C@@H](NC(C)=O)CC2` [COLCHICINE], the IC50 turned out to be 0.011 µM with MKN-45, 0.0114 µM in the experiment on KB, 3 µM in experiment [2] and 0.125 µM in experiment [3].

`COc1cc(C(=O)n2c(C)cc3cc(N(C)C)ccc32)cc(OC)c1OC`: the IC50 was 0.041 µM with MKN-45; 0.042 µM with KB; 1.5 µM in experiment [2]; 0.052 µM with NCI-H460; 0.038 µM in experiment [3]. The values for the inhibition in experiment [1] and in experiment [4] were 89% and 72%, respectively.

Consider `COc1cc(C(=O)n2c(C)cc3c(O)c(OC)ccc32)cc(OC)c1OC`, for which the IC50 in the experiment on MKN-45 amounted to 0.0006 µM; in the experiment on KB, 0.0003 µM; in experiment [2], 0.6 µM; with NCI-H460, 0.0005 µM; in experiment [3], 0.0003 µM. Besides, the inhibition in experiment [1] was determined as 97%; in experiment [4], 94%.

Turning to `CCOC(=O)c1cc2cc(OC)ccc2n1C(=O)c1cc(OC)c(OC)c(OC)c1`, the IC50 came to 0.101 µM with MKN-45, 0.23 µM with KB, 0.198 µM in the experiment with NCI-H460 and 0.185 µM in experiment [3].

On to `CCOC(=O)c1c(C)n(C(=O)c2cc(OC)c(OC)c(OC)c2)c2ccc(OC)cc12`, for which the IC50 (with MKN-45; in the experiment on KB; with NCI-H460; in experiment [3]) was over 5 µM in each case.

On to `COc1cc(C(=O)n2ccc3cc(C)ccc32)cc(OC)c1OC`, for which the IC50 was 0.314 µM in the experiment on MKN-45, 0.371 µM with KB, 0.353 µM in the experiment on NCI-H460 and 0.4 µM in experiment [3].

On to `COC(=O)c1ccc2c(ccn2C(=O)c2cc(OC)c(OC)c(OC)c2)c1`, for which the IC50 with MKN-45 is over 5 µM; with KB, over 5 µM; in the experiment on NCI-H460, over 5 µM; in experiment [3] it was 5 µM.

Regarding `COc1ccc2c(c1)CC(C)N2C(=O)c1cc(OC)c(OC)c(OC)c1` (configuration not stated), the concentration for half-maximal inhibition (IC50) with MKN-45 turned out to be 0.257 µM; in the experiment on KB, 0.37 µM; with NCI-H460 it was 0.413 µM; in experiment [3], 0.372 µM.

For `COc1ccc2c(c1)CCCN2C(=O)c1cc(OC)c(OC)c(OC)c1`, the IC50 with MKN-45 was 0.395 µM; with KB it was 0.596 µM; in experiment [2], over 5 µM; with NCI-H460, 0.652 µM; in experiment [3], 0.586 µM.

With `COc1ccc2c(c1)CCN2C(=O)c1cc(OC)c(OC)c(OC)c1`, the IC50 in the experiment on MKN-45 stood at 0.053 µM; with KB, 0.089 µM; in experiment [2], 2.6 µM; in the experiment on NCI-H460, 0.098 µM; in experiment [3], 0.084 µM. Also, the inhibition in experiment [1] came to 55%; in experiment [4], 27%.

For the molecule `COc1cc(C(=O)n2ccc3cc4c(cc32)OCO4)cc(OC)c1OC`, the IC50 in the experiment on MKN-45 was found to be 0.521 µM; in the experiment on KB, 0.575 µM; in the experiment on NCI-H460 it was 0.559 µM; in experiment [3], 0.587 µM.

Regarding `COc1cc(C(=O)n2ccc3cc(CO)ccc32)cc(OC)c1OC`, the IC50 (in the experiment with MKN-45; in the experiment on KB; in the experiment with NCI-H460; in experiment [3]) was over 5 µM throughout.

As to `COc1ccc2c(c1)c(CN(C)C)cn2C(=O)c1cc(OC)c(OC)c(OC)c1`, the IC50 (in the experiment with MKN-45; with KB; in the experiment on NCI-H460; in experiment [3]) was over 5 µM throughout.

For the molecule `COc1ccc(NC(=O)c2cc(OC)c(OC)c(OC)c2)cc1`, the IC50 (in the experiment on MKN-45; in the experiment on KB; in the experiment with NCI-H460; in experiment [3]) was over 5 µM in each case.

Turning to `COc1cc(C(=O)n2ccc3c([N+](=O)[O-])c(OC)ccc32)cc(OC)c1OC`, the IC50 (in the experiment with MKN-45; with KB; in the experiment on NCI-H460; in experiment [3]) was over 5 µM each time.

By IC50 is commonly meant the point on the concentration scale where inhibition reaches its midpoint. In general, inhibition refers to how much of the control response was suppressed. Read a low inhibition as little suppression.
